Several values for one entry are separate records, joined by “and”; a condition that tells them apart may be missing. Equal values may be shown once.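 Following 48 hours of exposure in 96-well plates, responses at five concentrations were used to interpolate endpoints linearly. Here, GI50 denotes the concentration required for 50% inhibition of growth. TGI is the concentration that stops growth completely.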
Key:
Experiment in all cases: NCI anticancer screen, dose series, 48 h
[1] = tested on: A498 renal
[2] = tested on: HOP-92 NSCLC
[3] = tested on: SF-539 CNS
[4] = tested on: UO-31 renal
[5] = tested on: NCI-H23 lung
[6] = tested on: RPMI-8226 leukemia
[7] = tested on: MALME-3M melanoma
[8] = tested on: OVCAR-5 ovarian
[9] = tested on: OVCAR-4 ovarian
[10] = tested on: SNB-19 CNS

Structure (SMILES)	GI50 [1]	TGI [1] [µM]	GI50 [2]	TGI [2]	GI50 [3]	TGI [3] [µM]	GI50 [4]	GI50 [5]	TGI [5] [µM]	GI50 [6]	TGI [6]	GI50 [7]	TGI [7] [µM]	GI50 [8]	TGI [8] [µM]	GI50 [9]	TGI [9]	GI50 [10]	TGI [10]	TGI [4] [µM]
Cc1cccc2nc3cccc(C(=O)NCCNCCNCCNC(=O)c4cccc5nc6cccc(C)c6nc45)c3nc12	< 0.01 µM	0.363	< 0.0317 µM	0.519 µM	< 0.0254 µM	4.06	0.0238 µM	< 0.012 µM	0.938	< 0.01 µM	0.769 µM	< 0.0302 µM	2.21	0.12 µM	11.1	0.168 µM	5.09 µM	< 0.01 µM	15.5 µM	–
CC(=O)OC12c3ccccc3-c3ccccc3C1C(C(=O)O)C2(Cl)C(=O)O (stereo unspecified)	–	> 10	–	> 10 µM	–	> 10	–	–	> 10	–	> 10 µM	–	> 10	–	> 10	–	> 10 µM	–	> 10 µM	> 10
COc1ccc2c(Cc3c4ccccc4cc4ccccc34)cncc2c1O	–	23.9	–	13.2 µM	–	0.546	–	–	85.3	–	17 µM	–	55	–	> 57.4	–	> 74.2 µM	–	> 41.6 µM	34.9
Cc1cc(=O)n2c3c(c4c(cc13)c(CO)cc(=O)n4C)OC2	–	72.5	–	97.1 µM	–	51.5	–	–	48.1	–	> 100 µM	–	28.5	–	72.3	–	> 100 µM	–	> 100 µM	40.2
Cc1ccc(/C=C/C(=N/N=C(N)N)c2ccccc2)cc1	1.04 µM	4.92	2.25 µM	8.42 µM	2.75 µM	8.65	3.75 µM	2.76 µM	11.8	2.3 µM	7.98 µM	3.8 µM	20.2	2.97 µM	12.4	3.65 µM	15.6 µM	4.21 µM	17.3 µM	17.2
c1ccc(Nc2nc(-c3ccccn3)cs2)nc1	0.266 µM	13.5	2.49 µM	> 56.5 µM	0.825 µM	> 88.7	0.0737 µM	0.972 µM	> 32.7	0.548 µM	76.2 µM	0.156 µM	5.16	2.35 µM	> 100	0.593 µM	> 100 µM	0.997 µM	> 100 µM	0.711
CCC(C)[C@H](NC(=O)NC(=O)NC(=O)CI)C(=O)OC (stereo partly specified)	16.2 µM	30.5	2.67 µM	7.3 µM	10.3 µM	22.8	1.73 µM	16.3 µM	35.8	3.16 µM	9.27 µM	1.89 µM	4	15 µM	32.3	2.48 µM	8.68 µM	15.4 µM	31.6 µM	3.28
C=C1CCC2C3(C)COC(c4c(OC)cccc4OC)OC3CCC2(C)C1C/C=C1/C(=O)OCC1O (stereo unspecified)	15 µM	29.6	2.92 µM	8.51 µM	2.55 µM	6.35	2.01 µM	3.98 µM	15	2.01 µM	5.67 µM	8.92 µM	27.7	3.39 µM	8.63	2.42 µM	6.73 µM	14.6 µM	29.9 µM	4.33
O=C(/C=C/c1ccccc1Cl)c1cccc2ccccc12	–	27.5	–	34.9 µM	–	23.3	–	–	28.1	–	91 µM	–	30.1	–	26.7	–	16.6 µM	–	16.8 µM	21.3
Nc1nc2c(nnn2C2OC(CO)C(O)C2O)c(=O)[nH]1 (stereo unspecified)	1.86 µM	> 30.2	0.505 µM	68.4 µM	1.59 µM	> 39.7	1.71 µM	1.54 µM	> 100	2.76 µM	> 100 µM	4.62 µM	> 100	13.3 µM	> 100	1.59 µM	> 100 µM	7.33 µM	> 100 µM	> 100
O=[N+]([O-])c1ccc(Sc2nc(Cl)nc(NC3CCCC3)n2)cc1	> 10 µM	> 10	> 10 µM	> 10 µM	> 10 µM	> 10	3.08 µM	> 10 µM	> 10	> 10 µM	> 10 µM	> 10 µM	> 10	> 10 µM	> 10	> 10 µM	> 10 µM	> 10 µM	> 10 µM	> 10
O=C1CCCCC=C1C[N+](=O)[O-]	> 100 µM	> 100	29 µM	51.9 µM	27.7 µM	74.2	38.2 µM	27.5 µM	69.9	25.5 µM	58.5 µM	30.3 µM	53.5	21.9 µM	41.6	21.4 µM	46 µM	42.1 µM	> 100 µM	> 100
O=C1C(Nc2ccc(Br)cc2)=C(I)C(=O)c2ncccc21	1.69 µM	8.82	0.815 µM	1.61 µM	1.03 µM	2.49	0.641 µM	0.829 µM	2.14	0.836 µM	2.12 µM	0.731 µM	1.41	1.58 µM	5.71	0.601 µM	1.24 µM	1.41 µM	5.16 µM	1.85
CO[C@]12C=C/C(=C(/C(=O)OCc3cccnc3)C(=O)CCCCCCCC[C@@]3(OC)C=C/C(=C(/C(=O)OCc4cccnc4)C(=O)CCCCCCCC1)O3)O2	2.04 µM	6.57	1.86 µM	4.83 µM	1.64 µM	7.91	1.21 µM	0.79 µM	1.87	1.09 µM	5.87 µM	1.11 µM	3.7	1.99 µM	15.5	–	–	3.03 µM	> 50 µM	4.34
CC(C)(CCN=C(N)Nc1ccccn1)c1ccc(C(F)(F)F)cc1	14.9 µM	28.8	13.3 µM	27.6 µM	15.3 µM	29.4	10.7 µM	12.7 µM	27.6	6.58 µM	26.7 µM	14.3 µM	29.6	15.8 µM	30.7	11.8 µM	28.1 µM	16.9 µM	33.1 µM	22.7
CC(C)=CCC1=C(OCC(=O)O)C(=O)c2ccccc2C1=O	–	> 100	–	> 100 µM	–	56.6	–	–	> 100	–	> 100 µM	–	35	–	–	–	99.1 µM	–	92.7 µM	> 100
COC(C(=O)C(O)C(C)O)C1Cc2cc3cc(OC4CC(OC5CC(O)C(O)C(C)O5)C(O)C(C)O4)c(C)c(O)c3c(O)c2C(=O)C1OC1CC(OC2CC(O)C(OC3CC(C)(O)C(O)C(C)O3)C(C)O2)C(O)C(C)O1 (stereo unspecified)	11.2 ng/mL and 0.0278 ng/mL	–	11.2 ng/mL and 3.21 ng/mL	80 ng/mL and 82 ng/mL	11.2 ng/mL and 0.474 ng/mL	–	72.5 ng/mL and 3.56 ng/mL	11.2 ng/mL and 0.748 ng/mL	–	11.2 ng/mL and 1.64 ng/mL	507 ng/mL and 191 ng/mL	11.2 ng/mL and 0.642 ng/mL	–	13 ng/mL and 3.6 ng/mL	–	24.2 ng/mL and 1.92 ng/mL	269 ng/mL and 143 ng/mL	40.2 ng/mL	> 150000 ng/mL	–
C[C@]12CCC[C@H](O)[C@H]1C[C@H](CO)CC2	–	> 100	–	> 100 µM	–	> 100	–	–	> 100	–	> 100 µM	–	> 100	–	> 100	–	> 100 µM	–	> 100 µM	> 100
Nc1ccccc1NC(=O)c1ccc(CN2CCC/C(=C\c3ccccn3)C2=O)cc1	1.09 µM	3.47	0.143 µM	2.98 µM	1.58 µM	> 100	1.24 µM	2.11 µM	> 100	0.686 µM	5.66 µM	1.01 µM	> 100	–	–	2.66 µM	> 100 µM	3.16 µM	> 100 µM	15.9
Cc1[nH]c(C(=O)Nc2ccccc2OC2CCNCC2)c(Cl)c1Cl	2.71 µM	9.47	0.702 µM	1.79 µM	0.856 µM	1.56	0.656 µM	1.52 µM	5.64	1.04 µM	2.59 µM	0.809 µM	1.55	1.28 µM	4.32	0.901 µM	1.69 µM	1.25 µM	3.44 µM	1.32
CC1(c2cccc(N)c2)C2C(=O)NC(=O)C1C(=O)NC2=O (stereo unspecified)	–	99.6	–	57.3 µM	–	81.7	–	–	48.5	–	40.3 µM	–	95	–	> 100	–	> 100 µM	–	> 100 µM	67.8
CCN(Cc1ccccc1Cl)c1ccc(CO)c(Cl)c1	< 0.0219 µM	0.0672	0.932 µM	8.25 µM	15 µM	29	9.15 µM	7.44 µM	22.6	1.91 µM	19 µM	13.6 µM	28.1	0.206 µM	0.789	0.368 µM	9.36 µM	13.2 µM	26.3 µM	24.9
N#Cc1cc([N+](=O)[O-])ccc1NC(=O)C(F)(F)F	–	> 100	–	> 100 µM	–	> 100	–	–	> 100	–	> 66.9 µM	–	> 100	–	> 100	–	> 100 µM	–	> 100 µM	> 100
CCC(CCC(C)C1CCC2C3CC=C4CC(OC5OC(CO)C(O)C(O)C5O)CCC4(C)C3CCC12C)C(C)C (stereo unspecified)	–	> 100	–	> 100 µM	–	> 100	–	–	> 100	–	> 100 µM	–	> 100	–	> 100	–	> 100 µM	–	> 100 µM	> 100
NC(=S)N/N=C/c1ccc(N)cn1	–	> 10	–	> 10 µM	–	2.2	–	–	> 8.9	–	> 10 µM	–	> 10	–	> 10	–	> 10 µM	–	> 10 µM	6.97
CSCC[C@H](NC(=O)[C@H](CC(C)C)NC(=O)[C@@H](Cc1ccccc1)NC(=O)CNC(=O)[C@@H](NC(=O)[C@H](C)NC(=O)[C@H](Cc1c[nH]c2ccccc12)NC(=O)[C@H](CCC(N)=O)NC(=O)[C@H](N)CC(N)=O)C(C)C)C(N)=O	–	> 12.5	–	> 12.5 µM	–	> 12.5	–	–	> 12.5	–	> 12.5 µM	–	> 12.5	–	> 12.5	–	> 12.5 µM	–	> 12.5 µM	–
COC(=O)C1=CC2CC1C(S(=O)(=O)c1ccccc1)C2S(=O)(=O)c1ccccc1 (stereo unspecified)	–	42.9	–	29.4 µM	–	–	–	–	36.8	–	29.3 µM	–	23.5	–	28.3	–	39.9 µM	–	> 100 µM	27.7
O=S(=O)(c1ccc(Br)cc1)N1CCN(S(=O)(=O)c2ccc(Br)cc2)CC1	–	> 100	–	> 100 µM	–	–	–	–	> 100	–	> 100 µM	–	> 100	–	> 100	–	> 100 µM	–	> 100 µM	> 100
O=c1c2cccc(F)c2sc2c(N3CCNCC3)nc3ccccc3c12	1.92 µM	8.51	1.11 µM	2.6 µM	1.71 µM	3.11	0.597 µM	1.57 µM	3.1	1.69 µM	3.73 µM	1.67 µM	3.07	1.59 µM	3.03	1.64 µM	3.08 µM	–	–	2.04
O=C(O)C1C2C=CC(C2)C1C(=O)O (stereo unspecified)	> 100 µM	> 100	> 100 µM	> 100 µM	> 100 µM	> 100	> 100 µM	–	–	> 100 µM	> 100 µM	> 100 µM	> 100	> 100 µM	> 100	> 100 µM	> 100 µM	> 100 µM	> 100 µM	> 100
